Patent publication US20160340322A1 (NISSAN CHEMICAL INDUSTRIES, LTD., priority 2013, published 2016)

Target: T1, Human T-type calcium channel (Cav 3.2) (Homo sapiens, UniProt O95180)
T1 construct: Edward Perez-Reyes, University of Virginia, USA; host or cells: HEK293
Assay: Calcium Influx Inhibition Assay
Type: cell-based
Conditions: human T-type calcium channel (Cav 3.2) expressing HEK293 cells; FLIPR Calcium 4 fluorescence; 30 min compound incubation; read-out: T-type calcium channel inhibition concentration IC50
Procedure: 1. Calcium Influx Inhibition Assay Human T-type calcium channel (Cav 3.2) expressing HEK293 cells were introduced from Prof. Edward Perez-Reyes, University of Virginia, USA. The calcium-sensitive fluorescent dye used was FLIPR Calcium 4 Assay Kit (Molecular Devices). To a black 96-well plate with a clear bottom coated with type I collagen, the human T-type calcium channel (Cav 3.2) expressing HEK293 cells were seeded and cultured overnight, and the culture medium was removed. A solution of the calcium-sensitive fluorescent dye was added, and the resultant plate was incubated at 37° C. in an atmosphere of 5% carbon dioxide for 30 minutes. To the plate, a diluted solution of a compound was added, and subjected to further incubation at 37° C. in an atmosphere of 5% carbon dioxide for 30 minutes. While fluorescence was continuously analyzed from the bottom with a FlexStation 3 (Molecular Devices), a calcium solution was added. […] Based on the rise value in the fluorescence from the base line, the inhibition percentage was calculated. The logarithms of compound concentrations were plotted with respect to the inhibition activities to obtain an IC50 value.

T1 sequence (O95180 whole entry): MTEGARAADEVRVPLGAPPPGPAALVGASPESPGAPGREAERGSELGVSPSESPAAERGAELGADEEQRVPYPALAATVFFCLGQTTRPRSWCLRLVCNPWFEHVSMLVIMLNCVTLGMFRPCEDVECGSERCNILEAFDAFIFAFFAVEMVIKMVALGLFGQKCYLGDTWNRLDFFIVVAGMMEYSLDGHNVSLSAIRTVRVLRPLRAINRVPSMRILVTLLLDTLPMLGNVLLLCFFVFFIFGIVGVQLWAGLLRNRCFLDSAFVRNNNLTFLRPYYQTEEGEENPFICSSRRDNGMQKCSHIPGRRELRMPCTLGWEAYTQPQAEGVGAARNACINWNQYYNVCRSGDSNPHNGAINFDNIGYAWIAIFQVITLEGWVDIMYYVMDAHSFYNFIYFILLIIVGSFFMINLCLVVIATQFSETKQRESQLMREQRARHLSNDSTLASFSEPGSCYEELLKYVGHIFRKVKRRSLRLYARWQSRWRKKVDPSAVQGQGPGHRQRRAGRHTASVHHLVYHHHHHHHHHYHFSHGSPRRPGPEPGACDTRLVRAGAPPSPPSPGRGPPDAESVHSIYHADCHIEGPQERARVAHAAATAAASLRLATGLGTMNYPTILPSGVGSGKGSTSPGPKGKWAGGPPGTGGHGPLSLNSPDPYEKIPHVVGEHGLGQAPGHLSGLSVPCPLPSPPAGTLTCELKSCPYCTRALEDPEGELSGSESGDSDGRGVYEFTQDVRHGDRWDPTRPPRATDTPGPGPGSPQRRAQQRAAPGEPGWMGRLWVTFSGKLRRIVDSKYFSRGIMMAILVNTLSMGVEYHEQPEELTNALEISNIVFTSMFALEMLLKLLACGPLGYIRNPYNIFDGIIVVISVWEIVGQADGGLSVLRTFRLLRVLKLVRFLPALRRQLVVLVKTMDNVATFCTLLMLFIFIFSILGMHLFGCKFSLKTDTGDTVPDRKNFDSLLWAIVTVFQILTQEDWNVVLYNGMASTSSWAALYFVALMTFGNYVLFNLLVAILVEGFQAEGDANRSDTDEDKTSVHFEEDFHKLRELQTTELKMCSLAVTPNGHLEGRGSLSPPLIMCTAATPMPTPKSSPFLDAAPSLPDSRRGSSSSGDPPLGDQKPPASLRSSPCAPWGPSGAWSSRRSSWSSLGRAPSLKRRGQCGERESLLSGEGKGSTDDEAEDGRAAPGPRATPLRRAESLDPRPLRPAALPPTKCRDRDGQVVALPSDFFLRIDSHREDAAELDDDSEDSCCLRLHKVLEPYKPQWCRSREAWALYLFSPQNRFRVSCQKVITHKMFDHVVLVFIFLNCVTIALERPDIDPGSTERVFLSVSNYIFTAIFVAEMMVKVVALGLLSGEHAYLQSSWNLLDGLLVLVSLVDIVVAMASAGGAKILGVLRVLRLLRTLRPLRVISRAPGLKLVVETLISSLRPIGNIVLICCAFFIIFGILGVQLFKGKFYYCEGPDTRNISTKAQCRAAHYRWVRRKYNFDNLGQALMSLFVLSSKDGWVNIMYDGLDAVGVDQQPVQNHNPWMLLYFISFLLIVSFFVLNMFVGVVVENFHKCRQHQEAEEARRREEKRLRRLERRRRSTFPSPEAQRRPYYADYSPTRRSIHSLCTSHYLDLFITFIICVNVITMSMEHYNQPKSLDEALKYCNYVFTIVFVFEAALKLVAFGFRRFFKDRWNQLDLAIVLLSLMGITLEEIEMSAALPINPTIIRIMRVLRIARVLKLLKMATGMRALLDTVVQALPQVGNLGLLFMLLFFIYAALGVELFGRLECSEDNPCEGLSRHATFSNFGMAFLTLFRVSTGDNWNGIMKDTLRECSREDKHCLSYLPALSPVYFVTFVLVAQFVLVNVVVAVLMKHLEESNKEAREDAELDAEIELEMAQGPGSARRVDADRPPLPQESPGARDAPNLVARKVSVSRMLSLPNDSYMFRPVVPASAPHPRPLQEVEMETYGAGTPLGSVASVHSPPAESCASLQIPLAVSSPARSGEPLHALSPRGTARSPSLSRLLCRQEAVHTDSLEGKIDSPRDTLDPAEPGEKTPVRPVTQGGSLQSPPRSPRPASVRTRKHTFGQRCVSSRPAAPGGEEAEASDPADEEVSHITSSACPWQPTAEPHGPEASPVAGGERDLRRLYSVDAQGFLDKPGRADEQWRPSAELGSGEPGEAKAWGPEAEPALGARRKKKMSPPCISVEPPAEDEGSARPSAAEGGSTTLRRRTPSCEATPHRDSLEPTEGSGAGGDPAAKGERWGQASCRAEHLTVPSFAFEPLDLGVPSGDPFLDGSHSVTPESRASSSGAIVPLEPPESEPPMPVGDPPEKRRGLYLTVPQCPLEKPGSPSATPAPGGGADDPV

Structure (SMILES) | IC50
O=c1nc(N2CC=C(c3ccc(F)cc3)CC2)cnn1Cc1ccc(C(F)(F)F)s1 [Synthesis Example 6, 5-[4-(4-Fluorophenyl)-5,6-dihydropyridine-1(2H)-yl]-2-{[5-(trifluoromethyl)thiophen-2-yl]methyl}-1,2,4-triazin-3(2H)-one] | 0.024 µM
O=c1nc(N2CC=C(c3ccc(F)cc3)[C@@H](O)C2)cnn1Cc1ccc(C(F)(F)F)s1 [Synthesis Example 7, (R)-5-[4-(4-Fluorophenyl)-5-hydroxy-5,6-dihydropyridin-1(2H)-yl]-2-{[5-(trifluoromethyl)thiophene-2-yl]methyl}-1,2,4-triazin-3(2H)-one] | 0.006 µM
O=c1nc(N2CCN(c3ccc(F)cc3)CC2)cnn1Cc1ccc(OCc2ccc(F)cc2)cc1 [Synthesis Example 4, 2-{4-[(4-Fluorobenzyl)oxy]benzyl}-5-[4-(4-fluorophenyl)piperazin-1-yl]-1,2,4-triazin-3(2H)-one] | 0.035 µM
Cc1cc(C2=CCN(c3cnn(Cc4cnc(C(F)(F)F)s4)c(=O)n3)C[C@@H]2O)cs1 [Synthesis Example 12, (R)-5-[5-Hydroxy-4-(5-methylthiophen-3-yl)-5,6-dihydropyridin-1(2H)-yl]-2-{[2-(trifluoromethyl)thiazol-5-yl]methyl}-1,2,4-triazin-3(2H)-one] | 0.026 µM
CCOc1ccc2c(c1)C(O)CN(c1cnn(Cc3cnc(C(F)(F)F)s3)c(=O)n1)C2 (stereo not shown) [Synthesis Example 18, 5-[6-Ethoxy-4-hydroxy-3,4-dihydroisoquinolin-2(1H)-yl]-2-{[2-(trifluoromethyl)thiazol-5-yl]methyl}-1,2,4-triazin-3(2H)-one] | 2.9 µM
COc1ccc2c(c1)CCN(c1cnn(Cc3cnc(C(F)(F)F)s3)c(=O)n1)C2C (stereo not shown) [Synthesis Example 19] | 2.2 µM
O=c1nc(N2CCN(c3ccc(F)cc3)CC2)cnn1Cc1ccc(OCc2ccc(Cl)cc2)cc1 [Synthesis Example 3, 2-{4-[(4-Chlorobenzyl)oxy]benzyl}-5-[4-(4-fluorophenyl)piperazin-1-yl]-1,2,4-triazin-3(2H)-one] | 0.2 µM
O=c1nc(N2CCN(c3ccc(F)cc3)CC2)cnn1Cc1ccc(Cl)cc1 [Synthesis Example 1, 2-(4-Chlorobenzyl)-5-[4-(4-fluorophenyl)piperazin-1-yl]-1,2,4-triazin-3(2H)-one] | 0.22 µM
Cc1ccc(N2CCN(c3cnn(Cc4cnc(C(F)(F)F)s4)c(=O)n3)CC2)nc1 [Synthesis Example 13, 5-[4-(5-Methylpyridin-2-yl)piperazin-1-yl]-2-{[2-(trifluoromethyl)thiazol-5-yl]methyl}-1,2,4-triazine-3(2H)-one] | 6.1 µM
Cc1cc(C2=CCN(c3cnn(Cc4ccc(C(F)(F)F)s4)c(=O)n3)C[C@@H]2O)cs1 [Synthesis Example 15, (R)-5-[5-Hydroxy-4-(5-methylthiophen-3-yl)-5,6-dihydropyridin-1(2H)-yl]-2-{[5-(trifluoromethyl)thiophen-2-yl]methyl}-1,2,4-triazin-3(2H)-one] | 0.001 µM
O=c1nc(N2Cc3ccc(OC(F)F)cc3C(O)C2)cnn1Cc1ccc(C(F)(F)F)s1 (stereo not shown) | 0.064 µM

Second part, the compound after the results:

IC50 | Structure (SMILES)
0.062 µM | CC(C)(C)c1ncc(Cn2ncc(N3CC=C(c4ccc(F)cc4)[C@@H](O)C3)nc2=O)o1 [Synthesis Example 50, (R)-2-{[2-(Tert-butyl)oxazol-5-yl]methyl}-5-[4-(4-fluorophenyl)-5-hydroxy-5,6-dihydropyridin-1(2H)-yl]-1,2,4-triazin-3(2H)-one]
2.6 µM | O=c1nc(N2CC=C(c3ccc(F)cc3)[C@@H](O)C2)cnn1Cn1cc(Cl)cn1 [Synthesis Example 47, (R)-2-[(4-Chloro-1H-pyrazol-1-yl)methyl]-5-[4-(4-fluorophenyl)-5-hydroxy-5,6-dihydropyridin-1(2H)-yl]-1,2,4-triazin-3(2H)-one]
0.18 µM | Cn1cc(C2=CCN(c3cnn(Cc4ccc(C(F)(F)F)s4)c(=O)n3)C[C@@H]2O)cn1 [Synthesis Example 38, (R)-5-[5-Hydroxy-4-(1-methyl-1H-pyrazol-4-yl)-5,6-dihydropyridin-1(2H)-yl]-{[5-(trifluoromethyl)thiophen-2-yl]methyl}-1,2,4-triazin-3(2H)-one]
0.029 µM | O=c1nc(N2CCN(c3ccc(Cl)cc3)CC2)cnn1Cc1ccc(C(F)(F)F)s1 [Synthesis Example 41, 5-[4-(4-Chlorophenyl)piperazin-1-yl]-2-{[5-(trifluoromethyl)thiophen-2-yl]methyl}-1,2,4-triazin-3(2H)-one]
0.048 µM | COc1cccc(C2=CCN(c3cnn(Cc4ccc(C(F)(F)F)s4)c(=O)n3)C[C@@H]2O)n1 [Synthesis Example 32]
1 µM | O=c1nc(N2Cc3ccc(OC(F)F)cc3C(O)C2)cnn1Cc1cnc(C(F)(F)F)s1 (stereo not shown) [Synthesis Example 55]
0.0079 µM | Cc1ccc(C2=CCN(c3cnn(Cc4ccc(C(F)(F)F)s4)c(=O)n3)C[C@@H]2O)cc1F [Synthesis Example 52, (R)-5-[4-(3-Fluoro-4-methylphenyl)-5-hydroxy-5,6-dihydropyridin-1(2H)-yl]-2-{[5-(trifluoromethyl)thiophen-2-yl]methyl}-1,2,4-triazin-3(2H)-one]
4.9 µM | Cn1cc(C2=CCN(c3cnn(Cc4cnc(C(F)(F)F)s4)c(=O)n3)C[C@@H]2O)cn1 [Synthesis Example 24, (R)-5-[5-Hydroxy-4-(1-methyl-1H-pyrazol-4-yl)-5,6-dihydropyridin-1(2H)-yl]-2-{[2-(trifluoromethyl)thiazol-5-yl]methyl}-1,2,4-triazin-3(2H)-one]
0.031 µM | O=c1nc(N2CC=C(c3ccc(F)cc3)C(F)C2)cnn1Cc1ccc(C(F)(F)F)s1 (stereo not shown) [Synthesis Example 35, 5-[5-Fluoro-4-(4-fluorophenyl)-5,6-dihydropyridin-1(2H)-yl]-2-{[5-(trifluoromethyl)thiophen-2-yl]methyl}-1,2,4-triazin-3(2H)-one]
0.032 µM | Cc1nc(N2CCN(c3cnn(Cc4ccc(C(F)(F)F)s4)c(=O)n3)CC2)ccc1F [Synthesis Example 33]
0.0034 µM | NC1CN(c2cnn(Cc3ccc(C(F)(F)F)s3)c(=O)n2)CC=C1c1ccc(F)cc1 (stereo not shown) [Synthesis Example 36, 5-[5-Amino-4-(4-fluorophenyl)-5,6-dihydropyridin-1(2H)-yl]-2-{[5-(trifluoromethyl)thiophen-2-yl]methyl}-1,2,4-triazin-3(2H)-one]
0.061 µM | O=c1nc(N2CCN(c3ccc(F)c(Cl)c3)CC2)cnn1Cc1ccc(C(F)(F)F)s1 [Synthesis Example 34]
0.012 µM | COc1nc(C2=CCN(c3cnn(Cc4ccc(C(F)(F)F)s4)c(=O)n3)C[C@@H]2O)ccc1Cl [Synthesis Example 29, (R)-5-[5-Chloro-5′-hydroxy-6-methoxy-5′,6′-dihydro-(2,4′-bipyridine)-1′(2′H)-yl]-2-{[5-(trifluoromethyl)thiophen-2-yl]methyl}-1,2,4-triazin-3(2H)-one]
0.19 µM | O=c1nc(N2CCN(c3ccc(Cl)cc3)CC2)cnn1Cc1cnc(C(F)(F)F)s1 [Synthesis Example 20, 5-[4-(4-Chlorophenyl)piperazin-1-yl]-2-{[2-(trifluoromethyl)thiazol-5-yl]methyl}-1,2,4-triazin-3(2H)-one]
